Experimental data reported in ChEMBL document CHEMBL1201862, “PubChem BioAssay data set” (2004).
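In this assay, cells in 96-well plates receive the compound at five concentrations for 48 hours. Endpoints are linearly interpolated between the surrounding concentrations. The concentration for 50% growth inhibition is given as GI50.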 Active and inactive are the calls of the source. No stated cut-off is given here; in the data, active = GI50 up to about 1.1 µM and inactive = higher.

How the values were obtained:
Assay in all cases: DTP human tumour cell line panel, 48 h
MDA-N = tested on: MDA-N
SR = tested on: SR
PC-3 = tested on: PC-3
SK-MEL-5 = tested on: SK-MEL-5
M14 = tested on: M14
UACC-62 = tested on: UACC-62
SN12C = tested on: SN12C
SNB-75 = tested on: SNB-75
OVCAR-4 = tested on: OVCAR-4
OVCAR-8 = tested on: OVCAR-8
SF-295 = tested on: SF-295
EKVX = tested on: EKVX
IGROV-1 = tested on: IGROV-1
U-251 = tested on: U-251
OVCAR-3 = tested on: OVCAR-3
MDA-MB-435 = tested on: MDA-MB-435
HCT-116 = tested on: HCT-116
HOP-62 = tested on: HOP-62
SF-268 = tested on: SF-268
SF-539 = tested on: SF-539
RPMI-8226 = tested on: RPMI-8226
SW-620 = tested on: SW-620
K562 = tested on: K562
HT-29 = tested on: HT-29
NCI-H522 = tested on: NCI-H522
NCI-H460 = tested on: NCI-H460
HOP-92 = tested on: HOP-92
SK-MEL-2 = tested on: SK-MEL-2
BT-549 = tested on: BT-549
Hs-578T = tested on: Hs-578T
MCF7 = tested on: MCF7
SNB-19 = tested on: SNB-19
UO-31 = tested on: UO-31
ACHN = tested on: ACHN
MDA-MB-231 = tested on: MDA-MB-231
T47D = tested on: T47D
OVCAR-5 = tested on: OVCAR-5
SK-MEL-28 = tested on: SK-MEL-28
NCI/ADR-RES = tested on: NCI/ADR-RES
SK-OV-3 = tested on: SK-OV-3
KM12 = tested on: KM12
NCI-H226 = tested on: NCI-H226
TK-10 = tested on: TK-10
CAKI-1 = tested on: CAKI-1
A498 = tested on: A498
COLO 205 = tested on: COLO 205
HCC 2998 = tested on: HCC 2998
UACC-257 = tested on: UACC-257
A549 = tested on: A549
Malme-3M = tested on: Malme-3M
NCI-H23 = tested on: NCI-H23
DU-145 = tested on: DU-145
HCT-15 = tested on: HCT-15
786-0 = tested on: 786-0
RXF 393 = tested on: RXF 393
HL-60 = tested on: HL-60
LOX IMVI = tested on: LOX IMVI
CCRF-CEM = tested on: CCRF-CEM
MOLT-4 = tested on: MOLT-4

Question: c1cc(-c2ccc(Oc3ccc(-c4ccncc4)cc3)cc2)ccn1 was tested. Which GI50 (MDA-N) did it give?
Answer: 2.39 µM (inactive)

Question: What about the GI50 (SR) of the same molecule?
Answer: 3.15 µM (inactive)

Question: And the GI50 (PC-3)?
Answer: 27 µM (inactive)

Question: What about the GI50 (SK-MEL-5) of the same molecule?
Answer: 2.2 µM (inactive)

Question: What about the GI50 (M14) of the same molecule?
Answer: 4.76 µM (inactive)

Question: What about the GI50 (UACC-62) of the same molecule?
Answer: 7.18 µM (inactive)

Question: And the GI50 (SN12C)?
Answer: 23.3 µM (inactive)

Question: And the GI50 (SNB-75)?
Answer: 15.9 µM (inactive)

Question: And the GI50 (OVCAR-4)?
Answer: 5.47 µM (inactive)

Question: What about the GI50 (OVCAR-8) of the same molecule?
Answer: 9.55 µM (inactive)

Question: What about the GI50 (SF-295) of the same molecule?
Answer: 5.96 µM (inactive)

Question: What about the GI50 (EKVX) of the same molecule?
Answer: 5.53 µM (inactive)

Question: What about the GI50 (IGROV-1) of the same molecule?
Answer: 7.4 µM (inactive)

Question: And the GI50 (U-251)?
Answer: 4.01 µM (inactive)

Question: What about the GI50 (OVCAR-3) of the same molecule?
Answer: 6.14 µM (inactive)

Question: What about the GI50 (MDA-MB-435) of the same molecule?
Answer: 1.85 µM (inactive)

Question: And the GI50 (HCT-116)?
Answer: 4.24 µM (inactive)

Question: What about the GI50 (HOP-62) of the same molecule?
Answer: 23.6 µM (inactive)

Question: And the GI50 (SF-268)?
Answer: 22.6 µM (inactive)

Question: What about the GI50 (SF-539) of the same molecule?
Answer: 5.4 µM (inactive)

Question: What about the GI50 (RPMI-8226) of the same molecule?
Answer: 1.67 µM (inactive)

Question: What about the GI50 (SW-620) of the same molecule?
Answer: 4.37 µM (inactive)

Question: And the GI50 (K562)?
Answer: 2.5 µM (inactive)

Question: What about the GI50 (HT-29) of the same molecule?
Answer: 3.7 µM (inactive)

Question: And the GI50 (NCI-H522)?
Answer: 6.12 µM (inactive)

Question: What about the GI50 (NCI-H460) of the same molecule?
Answer: 3.93 µM (inactive)

Question: And the GI50 (HOP-92)?
Answer: 14.1 µM (inactive)

Question: And the GI50 (SK-MEL-2)?
Answer: 5.38 µM (inactive)

Question: And the GI50 (BT-549)?
Answer: 5.07 µM (inactive)

Question: And the GI50 (Hs-578T)?
Answer: 12.8 µM (inactive)

Question: What about the GI50 (MCF7) of the same molecule?
Answer: 4.26 µM (inactive)

Question: And the GI50 (SNB-19)?
Answer: 6.25 µM (inactive)

Question: And the GI50 (UO-31)?
Answer: 7.21 µM (inactive)

Question: What about the GI50 (ACHN) of the same molecule?
Answer: 9.48 µM (inactive)

Question: What about the GI50 (MDA-MB-231) of the same molecule?
Answer: 18.3 µM (inactive)

Question: And the GI50 (T47D)?
Answer: 5.13 µM (inactive)

Question: What about the GI50 (OVCAR-5) of the same molecule?
Answer: 29.2 µM (inactive)

Question: And the GI50 (SK-MEL-28)?
Answer: > 26.7 µM (inactive)

Question: What about the GI50 (NCI/ADR-RES) of the same molecule?
Answer: 3.01 µM (inactive)

Question: And the GI50 (SK-OV-3)?
Answer: 15.3 µM (inactive)

Question: What about the GI50 (KM12) of the same molecule?
Answer: 5.22 µM (inactive)

Question: And the GI50 (NCI-H226)?
Answer: 27.6 µM (inactive)

Question: What about the GI50 (TK-10) of the same molecule?
Answer: 7.18 µM (inactive)

Question: What about the GI50 (CAKI-1) of the same molecule?
Answer: 3.22 µM (inactive)

Question: And the GI50 (A498)?
Answer: 6.76 µM (inactive)

Question: And the GI50 (COLO 205)?
Answer: 3.56 µM (inactive)

Question: What about the GI50 (HCC 2998) of the same molecule?
Answer: 5 µM (inactive)

Question: What about the GI50 (UACC-257) of the same molecule?
Answer: 4.91 µM (inactive)

Question: And the GI50 (A549)?
Answer: 4.91 µM (inactive)

Question: What about the GI50 (Malme-3M) of the same molecule?
Answer: 6.82 µM (inactive)

Question: And the GI50 (NCI-H23)?
Answer: 3.18 µM (inactive)

Question: What about the GI50 (DU-145) of the same molecule?
Answer: 11.4 µM (inactive)

Question: And the GI50 (HCT-15)?
Answer: 3.43 µM

Question: What about the GI50 (786-0) of the same molecule?
Answer: 6.81 µM (inactive)

Question: What about the GI50 (RXF 393) of the same molecule?
Answer: 25.6 µM (inactive)

Question: And the GI50 (HL-60)?
Answer: 2.18 µM (inactive)

Question: And the GI50 (LOX IMVI)?
Answer: 9.18 µM (inactive)

Question: What about the GI50 (CCRF-CEM) of the same molecule?
Answer: 4.73 µM (inactive)

Question: What about the GI50 (MOLT-4) of the same molecule?
Answer: 2.99 µM (inactive)

Question: What does the source list for O=c1[nH]c2nccn2c(Cl)c1Br?
Answer: GI50 (MDA-N): 20 µM (inactive); GI50 (SR): 22.4 µM (inactive); GI50 (PC-3): 50.2 µM (inactive); GI50 (SK-MEL-5): 25.2 µM (inactive); GI50 (M14): 16.8 µM (inactive); GI50 (UACC-62): 19.4 µM (inactive); GI50 (SN12C): 26.2 µM (inactive); GI50 (SNB-75): 33.7 µM (inactive); GI50 (OVCAR-4): 18 µM (inactive); GI50 (OVCAR-8): 19.2 µM (inactive); GI50 (SF-295): > 100 µM (inactive); GI50 (EKVX): 19.7 µM (inactive); GI50 (IGROV-1): 20.3 µM (inactive); GI50 (U-251): 17.3 µM (inactive); GI50 (OVCAR-3): 19.8 µM (inactive); GI50 (MDA-MB-435): 19.8 µM (inactive); GI50 (HCT-116): 32.5 µM (inactive); GI50 (HOP-62): > 100 µM (inactive); GI50 (SF-268): 23.2 µM (inactive); GI50 (SF-539): > 100 µM (inactive); GI50 (RPMI-8226): 54.3 µM (inactive); GI50 (SW-620): 26.6 µM (inactive); GI50 (K562): 19.6 µM (inactive); GI50 (HT-29): 23.3 µM (inactive); GI50 (NCI-H522): 14.6 µM (inactive); GI50 (NCI-H460): 24.7 µM (inactive); GI50 (HOP-92): 24.7 µM (inactive); GI50 (SK-MEL-2): 2.52 µM (inactive); GI50 (BT-549): 18.7 µM (inactive); GI50 (Hs-578T): 26.9 µM (inactive); GI50 (MCF7): 42.6 µM (inactive); GI50 (SNB-19): 27.7 µM (inactive); GI50 (UO-31): 60 µM (inactive); GI50 (ACHN): 29.9 µM (inactive); GI50 (MDA-MB-231): 17.5 µM (inactive); GI50 (T47D): 14.8 µM (inactive); GI50 (OVCAR-5): 23.4 µM (inactive); GI50 (SK-MEL-28): 19.4 µM (inactive); GI50 (NCI/ADR-RES): 22.9 µM (inactive); GI50 (SK-OV-3): 29.6 µM (inactive); GI50 (KM12): 95.1 µM (inactive); GI50 (NCI-H226): 35.2 µM (inactive); GI50 (TK-10): > 100 µM (inactive); GI50 (CAKI-1): 22.4 µM (inactive); GI50 (A498): 76 µM (inactive); GI50 (COLO 205): 18.6 µM (inactive); GI50 (HCC 2998): 21.1 µM (inactive); GI50 (UACC-257): 16.4 µM (inactive); GI50 (A549): > 100 µM (inactive); GI50 (Malme-3M): 20 µM (inactive); GI50 (NCI-H23): 17.9 µM (inactive); GI50 (DU-145): 83.8 µM (inactive); GI50 (HCT-15): 16.6 µM; GI50 (786-0): 86.9 µM (inactive); GI50 (RXF 393): 1.94 µM (inactive); GI50 (HL-60): 17.2 µM (inactive); GI50 (LOX IMVI): 18 µM (inactive); GI50 (CCRF-CEM): 20.5 µM (inactive); GI50 (MOLT-4): 20.2 µM (inactive)
